In US11541028B2, “Peptide pharmaceuticals for treatment of NASH and other disorders” (Mederis Diabetes LLC, priority 2018, dated 2023):
Bridge positions count the residues as written; N and C are the ends. Square brackets hold non-standard residues; d marks the D form. Peptide text beside a SMILES is read from it. * marks the point of attachment. X1 = CCCCCCCCCCCCCCCCO[C@@H]1O[C@H](CO[C@H]2O[C@H](C(=O)*)[C@H](O)[C@H](O)[C@H]2O)[C@@H](O)[C@H](O)[C@H]1O; X2 = CCCCCCCCCCCCCCO[C@@H]1O[C@H](CO[C@H]2O[C@H](C(=O)*)[C@H](O)[C@H](O)[C@H]2O)[C@@H](O)[C@H](O)[C@H]1O; βGlcA(1-O-hexadecyl) = CCCCCCCCCCCCCCCCO[C@@H]1O[C@H](C(=O)*)[C@@H](O)[C@H](O)[C@H]1O; GlcA(1β-O-tetradecyl) = CCCCCCCCCCCCCCO[C@@H]1O[C@H](C(=O)*)[C@@H](O)[C@H](O)[C@H]1O; Aib = CC(C)(N)C(=O)O

How the values were obtained:
[1] = molecular target: T1, human GLP-1 receptor (Homo sapiens, UniProt P43220); experiment: DiscoveRx LeadHunter cellular assay, cAMP stimulation, GLP-1 receptor in CHO cells; format: cell-based; conditions: human GLP-1 receptor in CHO cells (DiscoveRx); read-out: EC50 cAMP GLP-1 R
T1 construct: host or cells: CHO cells

[2] = molecular target: T2, human glucagon receptor (Homo sapiens, UniProt P47871); experiment: DiscoveRx LeadHunter cellular assay, cAMP stimulation, glucagon receptor in CHO cells; format: cell-based
T2 construct: host or cells: CHO cells
T2 sequence (P47871 26-477): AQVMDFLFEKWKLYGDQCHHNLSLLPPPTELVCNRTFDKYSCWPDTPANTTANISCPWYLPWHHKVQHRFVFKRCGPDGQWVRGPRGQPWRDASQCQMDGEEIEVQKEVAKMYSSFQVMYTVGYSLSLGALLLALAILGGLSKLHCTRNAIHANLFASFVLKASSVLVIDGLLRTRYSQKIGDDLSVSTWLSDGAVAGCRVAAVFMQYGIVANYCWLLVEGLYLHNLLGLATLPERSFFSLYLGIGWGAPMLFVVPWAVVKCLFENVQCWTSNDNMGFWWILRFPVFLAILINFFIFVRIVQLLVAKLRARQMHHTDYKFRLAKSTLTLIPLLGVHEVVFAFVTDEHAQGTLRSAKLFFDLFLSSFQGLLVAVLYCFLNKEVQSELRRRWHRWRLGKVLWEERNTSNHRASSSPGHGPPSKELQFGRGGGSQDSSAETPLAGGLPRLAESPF

T1 sequence (P43220 24-463): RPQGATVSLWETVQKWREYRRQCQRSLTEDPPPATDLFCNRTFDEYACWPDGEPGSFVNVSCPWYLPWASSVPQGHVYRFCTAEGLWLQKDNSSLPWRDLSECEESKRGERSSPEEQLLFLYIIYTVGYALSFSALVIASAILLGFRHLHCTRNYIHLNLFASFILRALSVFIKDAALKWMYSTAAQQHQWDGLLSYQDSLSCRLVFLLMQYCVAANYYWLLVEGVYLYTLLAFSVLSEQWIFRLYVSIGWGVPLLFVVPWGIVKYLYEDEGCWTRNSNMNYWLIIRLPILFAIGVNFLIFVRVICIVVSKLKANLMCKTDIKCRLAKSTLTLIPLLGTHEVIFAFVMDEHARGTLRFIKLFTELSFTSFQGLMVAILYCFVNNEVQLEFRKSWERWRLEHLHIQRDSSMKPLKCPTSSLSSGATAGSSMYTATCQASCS

| SMILES | EC50 [1] [nM] | EC50 [2] [nM] |
| --- | --- | --- |
| CCCCCCCCCCCCO[C@@H]1O[C@H](CO[C@H]2O[C@H](C(=O)NCCCC[C@H](N)C(=O)NCCCC[C@H](NC(=O)[C@@H](NC(=O)[C@H](Cc3ccccc3)NC(=O)[C@H](CCC(=O)O)NC(=O)[C@@H]3CCCCNC(=O)CC[C@H](NC(=O)[C@H](CC(=O)O)NC(=O)[C@H](CC(C)C)NC(=O)[C@H](Cc4ccc(O)cc4)NC(=O)[C@H](CCCCN)NC(=O)[C@H](CO)NC(=O)[C@H](Cc4ccc(O)cc4)NC(=O)[C@H](CC(=O)O)NC(=O)[C@H](CO)NC(=O)[C@@H](NC(=O)[C@H](Cc4ccccc4)NC(=O)[C@@H](NC(=O)CNC(=O)[C@H](CCC(N)=O)NC(=O)C(C)(C)NC(=O)[C@@H](N)Cc4c[nH]cn4)[C@@H](C)O)[C@@H](C)O)C(=O)N[C@@H](CCC(N)=O)C(=O)N[C@@H](C)C(=O)N[C@@H](C)C(=O)N3)[C@@H](C)CC)C(=O)N[C@@H](Cc3c[nH]c4ccccc34)C(=O)N[C@@H](CC(C)C)C(=O)N[C@@H](CC(C)C)C(=O)N[C@@H](CCC(N)=O)C(=O)N[C@H](C(N)=O)[C@@H](C)O)[C@H](O)[C@H](O)[C@H]2O)[C@@H](O)[C@H](O)[C@H]1O [EU-A1601] | 0.007 | 0.048 |
| CCCCCCCCCCCCCCCCO[C@@H]1O[C@H](C(=O)NCCCC[C@H](NC(=O)[C@@H](NC(=O)[C@H](Cc2ccccc2)NC(=O)[C@H](CCC(=O)O)NC(=O)[C@@H]2CCCCNC(=O)CC[C@H](NC(=O)[C@H](CC(=O)O)NC(=O)[C@H](CC(C)C)NC(=O)[C@H](Cc3ccc(O)cc3)NC(=O)[C@H](CCCCN)NC(=O)[C@H](CO)NC(=O)[C@H](Cc3ccc(O)cc3)NC(=O)[C@H](CC(=O)O)NC(=O)[C@H](CO)NC(=O)[C@@H](NC(=O)[C@H](Cc3ccccc3)NC(=O)[C@@H](NC(=O)CNC(=O)[C@H](CCC(N)=O)NC(=O)C(C)(C)NC(=O)[C@@H](N)Cc3c[nH]cn3)[C@@H](C)O)[C@@H](C)O)C(=O)N[C@@H](CCC(N)=O)C(=O)N[C@@H](C)C(=O)N[C@@H](C)C(=O)N2)[C@@H](C)CC)C(=O)N[C@@H](Cc2c[nH]c3ccccc23)C(=O)N[C@@H](CC(C)C)C(=O)N[C@@H](CC(C)C)C(=O)N[C@@H](CCC(N)=O)C(=O)N[C@H](C(=O)NCCOCCOCCOCCOCCOCCOCCOCCOCCC(=O)O)[C@@H](C)O)[C@@H](O)[C@H](O)[C@H]1O [EU-A1647] | 0.113 | 1.9 |
| CCCCCCCCCCCCCCCCO[C@@H]1O[C@H](CO[C@H]2O[C@H](C(=O)NCCCC[C@H](NC(=O)[C@H](C)NC(=O)[C@H](C)NC(=O)[C@H](CCC(N)=O)NC(=O)[C@@H]3CCCCNC(=O)CC[C@H](NC(=O)[C@H](CO)NC(=O)[C@H](Cc4ccc(O)cc4)NC(=O)[C@H](CC(=O)O)NC(=O)[C@H](CO)NC(=O)[C@@H](NC(=O)[C@H](Cc4ccccc4)NC(=O)[C@@H](NC(=O)CNC(=O)[C@H](CCC(N)=O)NC(=O)C(C)(C)NC(=O)[C@@H](N)Cc4c[nH]cn4)[C@@H](C)O)[C@@H](C)O)C(=O)N[C@@H](Cc4ccc(O)cc4)C(=O)N[C@@H](CC(C)C)C(=O)N[C@@H](CC(=O)O)C(=O)N3)C(=O)N[C@@H](CCC(=O)O)C(=O)N[C@@H](Cc3ccccc3)C(=O)N[C@H](C(=O)N[C@@H](CCC(N)=O)C(=O)N[C@@H](Cc3c[nH]c4ccccc34)C(=O)N[C@@H](CC(C)C)C(=O)N[C@@H](CC(C)C)C(=O)N[C@@H](CCC(N)=O)C(=O)N[C@H](C(N)=O)[C@@H](C)O)[C@@H](C)CC)[C@H](O)[C@H](O)[C@H]2O)[C@@H](O)[C@H](O)[C@H]1O [EU-A1740] (H-H[Aib]QGTFTSDYSEYLDKQAAK(X1)EFIQWLLQT-NH2; lactam 12-16; N-terminus assumed) | 0.077 | 3.82 |

Continued by falling EC50 [1], values first:

| EC50 [1] [nM] | EC50 [2] [nM] | SMILES |
| --- | --- | --- |
| 1.21 | 2.11 | CCCCCCCCCCCCCCCCO[C@@H]1O[C@H](C(=O)NCCCC[C@@H]2NC(=O)[C@@H](NC(=O)[C@H](CC(=O)O)NC(=O)[C@H](CC(C)C)NC(=O)[C@H](Cc3ccc(O)cc3)NC(=O)[C@H](CCCCN)NC(=O)[C@H](CO)NC(=O)[C@H](Cc3ccc(O)cc3)NC(=O)[C@H](CC(=O)O)NC(=O)[C@H](CO)NC(=O)[C@@H](NC(=O)[C@H](Cc3ccccc3)NC(=O)[C@@H](NC(=O)CNC(=O)[C@H](CCC(N)=O)NC(=O)C(C)(C)NC(=O)[C@@H](N)Cc3c[nH]cn3)[C@@H](C)O)[C@@H](C)O)CCC(=O)NCCCC[C@@H](C(=O)N[C@@H](CCC(=O)O)C(=O)N[C@@H](Cc3ccccc3)C(=O)N[C@H](C(=O)N[C@@H](CCC(=O)O)C(=O)N[C@@H](Cc3c[nH]c4ccccc34)C(=O)N[C@@H](CC(C)C)C(=O)N[C@@H](CC(C)C)C(=O)N[C@@H](CCC(N)=O)C(=O)N[C@H](C(N)=O)[C@@H](C)O)[C@@H](C)CC)NC(=O)[C@H](C)NC(=O)[C@H](C)NC2=O)[C@@H](O)[C@H](O)[C@H]1O [EU-A1842] (H-H[Aib]QGTFTSDYSKYLDEK(βGlcA(1-O-hexadecyl))AAKEFIEWLLQT-NH2; lactam 16-20; N-terminus assumed) |
| 0.774 | 2.08 | CCCCCCCCCCCCCCO[C@@H]1O[C@H](CO[C@H]2O[C@H](C(=O)N[C@@H](CCC(=O)N[C@@H](CCC(=O)NCCCC[C@H](NC(=O)[C@@H](NC(=O)[C@H](Cc3ccccc3)NC(=O)[C@H](CCC(=O)O)NC(=O)[C@@H]3CCCCNC(=O)CC[C@H](NC(=O)[C@H](CC(=O)O)NC(=O)[C@H](CC(C)C)NC(=O)[C@H](Cc4ccc(O)cc4)NC(=O)[C@H](CCCCN)NC(=O)[C@H](CO)NC(=O)[C@H](Cc4ccc(O)cc4)NC(=O)[C@H](CC(=O)O)NC(=O)[C@H](CO)NC(=O)[C@@H](NC(=O)[C@H](Cc4ccccc4)NC(=O)[C@@H](NC(=O)CNC(=O)[C@H](CCC(N)=O)NC(=O)C(C)(C)NC(=O)[C@@H](N)Cc4c[nH]cn4)[C@@H](C)O)[C@@H](C)O)C(=O)N[C@@H](CCC(N)=O)C(=O)N[C@@H](C)C(=O)N[C@@H](C)C(=O)N3)[C@@H](C)CC)C(=O)N[C@@H](Cc3c[nH]c4ccccc34)C(=O)N[C@@H](CC(C)C)C(=O)N[C@@H](CC(C)C)C(=O)N[C@@H](CCC(N)=O)C(=O)N[C@H](C(=O)O)[C@@H](C)O)C(=O)O)C(=O)O)[C@H](O)[C@H](O)[C@H]2O)[C@@H](O)[C@H](O)[C@H]1O [EU-A1622] |
| 0.316 | 0.475 | CCCCCCCCCCCCCCO[C@@H]1O[C@H](C(=O)NCCCC[C@@H]2NC(=O)[C@@H](NC(=O)[C@H](CC(=O)O)NC(=O)[C@H](CC(C)C)NC(=O)[C@H](Cc3ccc(O)cc3)NC(=O)[C@H](CCCCN)NC(=O)[C@H](CO)NC(=O)[C@H](Cc3ccc(O)cc3)NC(=O)[C@H](CC(=O)O)NC(=O)[C@H](CO)NC(=O)[C@@H](NC(=O)[C@H](Cc3ccccc3)NC(=O)[C@@H](NC(=O)CNC(=O)[C@H](CCC(N)=O)NC(=O)C(C)(C)NC(=O)[C@@H](N)Cc3c[nH]cn3)[C@@H](C)O)[C@@H](C)O)CCC(=O)NCCCC[C@@H](C(=O)N[C@@H](CCC(=O)O)C(=O)N[C@@H](Cc3ccccc3)C(=O)N[C@H](C(=O)N[C@@H](CCC(=O)O)C(=O)N[C@@H](Cc3c[nH]c4ccccc34)C(=O)N[C@@H](CC(C)C)C(=O)N[C@@H](CC(C)C)C(=O)N[C@@H](CCC(N)=O)C(=O)N[C@H](C(N)=O)[C@@H](C)O)[C@@H](C)CC)NC(=O)[C@H](C)NC(=O)[C@H](C)NC2=O)[C@@H](O)[C@H](O)[C@H]1O [EU-A1841] (H-H[Aib]QGTFTSDYSKYLDEK(GlcA(1β-O-tetradecyl))AAKEFIEWLLQT-NH2; lactam 16-20; N-terminus assumed) |
| 0.095 | 0.746 | CCCCCCCCCCCCCCCCO[C@@H]1O[C@H](C(=O)N[C@@H](CCC(=O)NCCCC[C@H](NC(=O)[C@@H](NC(=O)[C@H](Cc2ccccc2)NC(=O)[C@H](CCC(=O)O)NC(=O)[C@@H]2CCCCNC(=O)CC[C@H](NC(=O)[C@H](CC(=O)O)NC(=O)[C@H](CC(C)C)NC(=O)[C@H](Cc3ccc(O)cc3)NC(=O)[C@H](CCCCN)NC(=O)[C@H](CO)NC(=O)[C@H](Cc3ccc(O)cc3)NC(=O)[C@H](CC(=O)O)NC(=O)[C@H](CO)NC(=O)[C@@H](NC(=O)[C@H](Cc3ccccc3)NC(=O)[C@@H](NC(=O)CNC(=O)[C@H](CCC(N)=O)NC(=O)C(C)(C)NC(=O)[C@@H](N)Cc3c[nH]cn3)[C@@H](C)O)[C@@H](C)O)C(=O)N[C@@H](CCC(N)=O)C(=O)N[C@@H](C)C(=O)N[C@@H](C)C(=O)N2)[C@@H](C)CC)C(=O)N[C@@H](Cc2c[nH]c3ccccc23)C(=O)N[C@@H](CC(C)C)C(=O)N[C@@H](CC(C)C)C(=O)N[C@@H](CCC(N)=O)C(=O)N[C@H](C(N)=O)[C@@H](C)O)C(=O)O)[C@@H](O)[C@H](O)[C@H]1O [EU-A1719] |
| 0.056 | 2.22 | CCCCCCCCCCCCCCO[C@@H]1O[C@H](CO[C@H]2O[C@H](C(=O)NCCCC[C@H](NC(=O)[C@H](C)NC(=O)[C@H](C)NC(=O)[C@H](CCC(N)=O)NC(=O)[C@@H]3CCCCNC(=O)CC[C@H](NC(=O)[C@H](CO)NC(=O)[C@H](Cc4ccc(O)cc4)NC(=O)[C@H](CC(=O)O)NC(=O)[C@H](CO)NC(=O)[C@@H](NC(=O)[C@H](Cc4ccccc4)NC(=O)[C@@H](NC(=O)CNC(=O)[C@H](CCC(N)=O)NC(=O)C(C)(C)NC(=O)[C@@H](N)Cc4c[nH]cn4)[C@@H](C)O)[C@@H](C)O)C(=O)N[C@@H](Cc4ccc(O)cc4)C(=O)N[C@@H](CC(C)C)C(=O)N[C@@H](CC(=O)O)C(=O)N3)C(=O)N[C@@H](CCC(=O)O)C(=O)N[C@@H](Cc3ccccc3)C(=O)N[C@H](C(=O)N[C@@H](CCC(N)=O)C(=O)N[C@@H](Cc3c[nH]c4ccccc34)C(=O)N[C@@H](CC(C)C)C(=O)N[C@@H](CC(C)C)C(=O)N[C@@H](CCC(N)=O)C(=O)N[C@H](C(N)=O)[C@@H](C)O)[C@@H](C)CC)[C@H](O)[C@H](O)[C@H]2O)[C@@H](O)[C@H](O)[C@H]1O [EU-A1739] (H-H[Aib]QGTFTSDYSEYLDKQAAK(X2)EFIQWLLQT-NH2; lactam 12-16; N-terminus assumed) |
